Assay results: patent publication US20230391727A1, “ANALOGUES OF PENTAMIDINE AND METHODS FOR TREATING INFECTIONS” (Auransa Inc., priority 2020, published 2023)
Values after ≈ are worked out from the molar mass of the structure shown. Read-outs that look alike come from different tables or passages of the source.

How the values were obtained:
NCI H69 cells = assay: CellTiter-Glo cell viability assay (cytotoxicity), 8 days; assay type: cell-based; details: Homo sapiens, 192 h, full growth media
Procedure: The experiment tested pentamidine, Compounds 1-6 in full growth media for 8 days. NCI H69 cells were initially treated with the test compounds on Day 0, and the cells were then replenished with fresh compound dilutions on Day 3. Pentamidine and Compound 1 were tested at 9 concentration points: 100 μM, 33.33 μM, 11.11 μM, 3.70 μM, 1.23 μM, […], 0.05 μM, and 0.02 μM (final DMSO concentration=0.5%). The raw data values from the CellTiter-Glo™ cell viability assay expressed in relative luminescence units were normalized to the vehicle for each individual plate, and any reduction in luminescence indicated a decrease in viability (%). The data was analyzed in GraphPad PRISM using a non-linear sigmoidal plot with variable slope (asymmetric four-point […]), and an IC50 value for each compound was generated based on the normalized dose-response curves and shown in Table 1.

A. baumannii ATCC 17978 = assay: Checkerboard assay with novobiocin (FIGS. 2, 3, 5, 6); assay type: cell-based, Acinetobacter baumannii
Excerpt: Novobiocin is an anti-staphylococcal drug, but with limited use. The oral form of novobiocin drug has since been withdrawn from the market due to lack of efficacy. This antibiotic is often used to treat Staphylococcus aureus infection, particularly methicillin resistant S. aureus “MRSA”.

K. pneumoniae ATCC 43816 = assay: Checkerboard assay with rifampicin (FIG. 4); assay type: cell-based, Klebsiella pneumoniae; details: K. pneumoniae ATCC 43816, FIG. 4
[1] = tested on: Aspergillus fumigatus AF293; assay: Anti-fungal MIC assay; assay type: cell-based; details: read-out: MIC, 50% growth inhibition
Procedure: (§1) The first round of testing included Candida parapsilosis, Candida krusei, Paecilomyces variotii, Candida albicans, Aspergillus fumigatus, and Blastomyces dermatitidis. […] The second round of testing included Candida parapsilosis, Candida krusei, Candida albicans, Candida auris, Candida glabrata, Candida guilliermondii, and Cryptococcus neoformans.
(§2) Stock solutions of the investigational agent were prepared at concentrations 100-times the highest concentration to be tested (6400 μg/ml) using dimethyl sulfoxide. Aliquots of the stock solutions were dispensed into polystyrene vials and stored at −20° C.
(§3) The synthetic medium RPMI-1640 (with glutamine, without bicarbonate, and with phenol red) was used. The RPMI was buffered to a pH of 7.0+0.1 at 25° C. with 0.165M MOPS (3-[N-morpholino] propanesulfonic acid). Sterile U-shaped 96-well cell culture plates were used to perform the MIC assays. Dilutions of the DMSO stocks were prepared in RPMI to achieve 2× concentrations. After the dilutions of the working 2× investigational antifungal solutions were prepared, 0.1 ml of each concentration was transferred into a pre-specified column of the U-shaped 96-well cell culture plate using sterile pipettes.
(§4) Fungal isolates were grown on Sabouraud dextrose agar (yeasts) or potato flake agar (filamentous fungi) and cells were collected after an appropriate period of growth for each species being evaluated (e.g., 48-72 hours for yeasts and 7 days for filamentous fungi). The fungi were suspended in sterile distilled water, and the densities of the fungal suspension were read using a spectrophotometer and adjusted to an appropriate optical density specific for each fungal species. The fungal suspension of each isolate was then diluted in RPMI. A sufficient volume of the test inoculum was prepared to directly inoculate 0.1 ml into each test well of the 96-well cell culture plate. Final inoculum ranges were dependent on the fungal species to be tested (e.g., 0.4×103 to 5×10^3 cells/ml for yeasts and dimorphic fungi, and 0.4×104 to 5×10^4 cells/ml for filamentous fungi). Each well of the 96-well cell culture plate containing the investigational antifungal compounds (0.1 ml volume) was inoculated on the day of the assay with 0.1 ml of the fungal suspension. Growth control wells contained 0.1 ml of fungal suspension and 0.1 ml of the growth medium without antifungal agents. The media control well contained 0.2 ml of the growth medium.
(§5) The microdilution trays were incubated at 35° C. without agitation. […] One positive comparator/control was used for yeast (fluconazole) and one was used for filamentous fungi (voriconazole).

[2] = tested on: Aspergillus fumigatus AF2; assay: Anti-fungal MIC assay; assay type: cell-based
Procedure: as §1, §2, §3, §4, §5

[3] = tested on: Aspergillus fumigatus AF3; assay: Anti-fungal MIC assay; assay type: cell-based
Procedure: as §1, §2, §3, §4, §5

[4] = tested on: Blastomyces dermatitidis BD1; assay: Anti-fungal MIC assay; assay type: cell-based
Procedure: as §1, §2, §3, §4, §5

[5] = tested on: Blastomyces dermatitidis BD2; assay: Anti-fungal MIC assay; assay type: cell-based
Procedure: as §1, §2, §3, §4, §5

[6] = tested on: Blastomyces dermatitidis BD3; assay: Anti-fungal MIC assay; assay type: cell-based
Procedure: as §1, §2, §3, §4, §5

Candida krusei ATCC6258 = assay: Anti-fungal MIC assay; assay type: cell-based; details: Pichia kudriavzevii, first round (Table 5)
Procedure: as §1, §2, §3, §4, §5

S. aureus ATCC 27660 = assay: MIC assay against gram positive S. aureus; assay type: cell-based; details: Staphylococcus aureus, ATCC27660
Procedure: (§6) Then the compound stocks were serially 2-fold diluted in a v-bottom 96-well plate to make 100-fold working solutions. One day before the test, −80° C. glycerol stock of S. aureus strains were streaked on cation-adjusted Mueller-Hinton agar (CAMHA) plates. On the day of test, fresh bacterial colonies were suspended into sterile saline to an OD600 nm of ˜0.1 (equivalent to 0.5 McFarland). The bacterial suspension was firstly 20-fold followed by 50-fold diluted in cation-adjusted Mueller-Hinton broth (CAMHB) plates to 1×10^6 CFU/PO. 198 ul of the inoculum was added into the round-bottom 96-well plates prefilled with 2 ul of 100-fold compound working solutions. After incubating at 35 +/−2° C. in ambient atmosphere for 18-24 h, MIC was recorded as the lowest concentration under which no visible bacterial growth was observed.

S. aureus ATCC 43300 = assay: MIC assay against gram positive S. aureus; assay type: cell-based; details: Staphylococcus aureus, ATCC43300
Procedure: as §6

[7] = tested on: Staphylococcus aureus ATCC 19636; assay: MIC assay against gram positive and antibiotic-resistant S. aureus; assay type: cell-based; details: ATCC19636; Staphylococcus aureus ATCC 19636; read-out: MIC
Procedure: (§7) The MICs of vancomycin and linezolid were determined as quality controls and the MIC values of each strain met the acceptance criteria based on PDS historical reference data.
(§8) The direct colony suspension method was used to prepare inoculated broth. Isolated colonies were taken from an 18-24 h culture plate. Optical density measurements (OD620 nm) were used to estimate the bacterial density. The test article, compound 3, and reference control stock solutions were prepared in 100% DMSO as 50× stock solutions. The 50× stock solutions were diluted by 2-fold serial titrations with 100% DMSO for a total of 11 concentrations. A 4 μL aliquot of each dilution was added to 196 μL of cation-adjusted Mueller Hinton Broth II medium seeded with the organism in wells of a 96 well plate. The final vehicle concentration was two percent (2%) in all assay wells. The final bacterial count was 2 to 8×10^5 CFU/mL. The final compound 3 concentration range was 16 to 0.016 μg/mL. Each test substance dilution was evaluated in duplicate on one test occasion. Vehicle-control and reference controls were used as blank and positive controls, respectively. Plates were incubated at 35-37° C. for 18 h. The test plates were visually examined and each well was visually scored for growth or complete inhibition of growth. The MIC value was recorded.

[8] = tested on: Staphylococcus aureus ATCC 33591 (MRSA); assay: as above; assay type: cell-based; details: Staphylococcus aureus ATCC 33591, MRSA; read-out: MIC
Procedure: as §7, §8

[9] = tested on: Staphylococcus aureus BAA-1556 (MRSA); assay: as above; assay type: cell-based; details: Staphylococcus aureus BAA-1556, MRSA; read-out: MIC
Procedure: as §7, §8

[10] = tested on: Staphylococcus aureus VRS-2 (VRSA); assay: as above; assay type: cell-based; details: Staphylococcus aureus VRS-2, VRSA; read-out: MIC
Procedure: as §7, §8

S. aureus VRS-2 = S. aureus VRS-2 peritonitis infection model; assay type: in vivo, female ICR mice; details: 50 mg/kg PO QD, 1 h post-infection, p<0.05
Procedure: The efficacy of compound 3 was evaluated in the S. aureus VRS-2 peritonitis infection model. The test article, compound 3 at 0.1, 0.3 and 1 mg/kg, was intraperitoneally (IP) administered twice at 2 and 16 h after infection; as well as once at 2 mg/kg at 2 h post-infection. The control reference agent, linezolid at 50 mg/kg, was orally (PO) administered once at 1 h post-infection. […] All animals in the vehicle group succumbed to infection between Day 1 to Day 2, resulting in 100% mortality, and a mean 15 h survival time. […] In the compound 3 at 1 mg/kg IP BID dose group, one out of eight animals survived till Day 7 of the study period, resulting in 13% survival rate, and a mean 33 h survival time.
For efficacy testing, the 0.4 mg/mL compound 3 solution was prepared by dissolving 1.21 mg of compound 3, corresponding to active ingredient of 1.02 mg with a correction factor of 1.19, in 2.55 mL of WFI. The 0.4 mg/mL compound 3 working solution was further diluted with WFI to generate three lower dosing solutions of 0.2, 0.06 and 0.02 mg/mL. All dosing solutions were soluble and colorless.
PDS supplied vancomycin and linezolid as reference controls for both MIC and in vivo studies. […] The 3.2 mg/mL linezolid 50× stock solution was prepared by dissolving 1.0 mg of linezolid in 0.313 mL of DMSO. Both solutions were colorless and soluble. For efficacy testing, one tablet of linezolid, at 600 mg, was dissolved in 12 mL of 1% Tween 80 in saline (0.9% NaCl) to generate a 50 mg/mL of stock solution. The 50 mg/mL linezolid stock solution was further diluted with 1% Tween 80 in 0.9% NaCl to generate the dosing solution of 5 mg/mL. Both solutions were insoluble with white color.
The S. aureus strain VRS-2 peritonitis infection model was performed with immunocompetent female ICR mice, weighing 22±2 g. All animals were specific pathogen free. The PDS standard protocol for preparing S. aureus cultures for mouse infection studies was followed. A 0.2 mL aliquot of a single-use glycerol stock (at −80° C.) was used to seed […] heart infusion (BHI) and then incubated at 35-37° C. with shaking (250 rpm) for 8 h. Bacterial cells in the 20 mL was pelleted by centrifugation (3,500×g) for 15 minutes, and then re-suspended in 10 mL cold phosphate buffer saline (PBS). The optical density, OD620 nm, was measured and used to guide dilution. The PBS suspensions were stored on ice for no more than 1 h prior to animal inoculation. The dilutions were performed by 1:1 dilution of BHI broth containing hog gastric mucin to obtain the target inoculum density, 1×10^8 CFU/mouse, per 0.5 mL with 5% mucin (final concentration). The actual colony count was determined by plating dilutions to nutrient agar (NA) plates followed by 20-24 h incubation at 35-37° C.
On Day 0, animals were infected with bacterial suspension with 5% mucin by intraperitoneal injection. The actual inoculum was 1.93×10^8 CFU/mouse with a target inoculum of 1×10^8 CFU/mouse in the peritonitis infection model. Test article, compound 3, was formulated in WFI and intraperitoneally (IP) administered with the dose schedule and concentrations indicated in the study design. Doses were administered once at 2 h post-infection or twice (BID) at 2 and 16 h post-infection. The animals were monitored for survival up to 7 days, twice daily (AM 9:00/PM 17:00). […]
Animals were monitored for mortality twice daily (AM 9:00/PM 17:00) for 7 days after infection. […]

[11] = read-out: MIC, 50% growth inhibition
[12] = read-out: MIC, 100% growth inhibition

## N=C(N)c1cccc(CCCCCCCc2cccc(C3CCNC3)c2)c1 (centres unmarked) [Compound 2, 3-(7-(3-(pyrrolidin-3-yl)phenyl)heptyl)benzimidamide]
NCI H69 cells
  IC50: 1.5 µM
A. baumannii ATCC 17978
  synergistic effect with novobiocin: clear synergistic effects
  synergy with novobiocin as compared to pentamidine with novobiocin: superior synergy
A. baumannii ATCC 17978; Acinetobacter baumannii, ATCC17978, substance alone
  MIC: 138 µM
K. pneumoniae ATCC 43816
  synergy with rifampicin: increased level of synergy

## C[C@@H](c1ncncc1F)[C@](O)(Cn1cncn1)c1ccc(F)cc1F [Voricolazole, voriconazole, reference compound]
[1]
  MIC: 0.25 µg/mL (≈ 0.716 µM)
[2]; [11]
  MIC: > 16 µg/mL
[2]; [12]
  MIC: > 16 µg/mL
[3]; [11]
  MIC: 2 µg/mL (≈ 5.73 µM)
[3]; [12]
  MIC: 4 µg/mL (≈ 11.5 µM)
[4]; [11]
  MIC: ≤ 0.03 µg/mL
[4]; [12]
  MIC: 0.06 µg/mL (≈ 0.172 µM)
[5]; [11]
  MIC: ≤ 0.03 µg/mL
[5]; [12]
  MIC: 0.125 µg/mL (≈ 0.358 µM)
[6]; [11]
  MIC: ≤ 0.03 µg/mL
[6]; [12]
  MIC: 0.125 µg/mL (≈ 0.358 µM)
Candida krusei ATCC6258; ATCC6258, Candida krusei ATCC6258, read-out: MIC, 50% growth inhibition
  MIC: ≤ 0.03 µg/mL
Candida krusei ATCC6258; ATCC6258, read-out: MIC, 100% growth inhibition, Candida krusei ATCC6258
  MIC: 0.125 µg/mL (≈ 0.358 µM)

## CC(=O)NC[C@H]1CN(c2ccc(N3CCOCC3)c(F)c2)C(=O)O1 [Linezolid, reference compound]
S. aureus ATCC 27660
  MIC: 4 µg/mL (≈ 11.9 µM)
S. aureus ATCC 43300
  MIC: 4 µg/mL (≈ 11.9 µM)
[7]
  MIC: 4 µg/mL (≈ 11.9 µM)
[8]
  MIC: 2 µg/mL (≈ 5.93 µM)
[9]
  MIC: 2 µg/mL (≈ 5.93 µM)
[10]
  MIC: 4 µg/mL (≈ 11.9 µM)
S. aureus VRS-2
  survival rate: 100%
S. aureus VRS-2; maximum set at 180 h
  mean survival time: 180 h
